Experimental data taken from ChEMBL document CHEMBL2346508, “Bifunctional inhibition of HIV-1 reverse transcriptase: a first step in designing a bifunctional triphosphate” (Bioorg Med Chem Lett, 2013).
Calls of active or inactive are those of the source. The calls are words filed in the database; no cut-off is given here.

Experiments:
[1] = biological target: Human immunodeficiency virus type 1 reverse transcriptase (Human immunodeficiency virus 1) (UniProt Q72547); assay: Inhibition of HIV-1 RT assessed as inhibition of annealing of D23/D36 primer/template at 150 uM by polyacrylamide denaturing gel-based incorporation assay
MT2 = assay: Cytotoxicity against human MT2 cells after 5 days by MTT assay; format: cell-based; details: MT2, 120 h
[2] = test system: Human immunodeficiency virus 1; assay: Antiviral activity against HIV-1 infected un MT2 cells assessed as virus-induced cytopathicity after 5 days by MTT assay; format: functional, organism-based; details: Human immunodeficiency virus 1, MT2, 120 h

CC(C)=CCN1Cc2c(OCCOCCOCCOCCOCCOCCn3c(=O)ccn([C@H]4C=C[C@@H](COP(=O)(O)OP(=O)(O)OP(=O)(O)O)O4)c3=O)ccc3[nH]c(=S)n(c23)C[C@@H]1C
inhibition [1]: inactive

CC(C)=CCN1Cc2c(OCCOCCOCCOCCOC(=O)CCc3cn([C@H]4C=C[C@@H](CO)O4)c(=O)[nH]c3=O)ccc3[nH]c(=S)n(c23)C[C@@H]1C
IC50 (MT2): > 100 µM | EC50 [2]: 45 µM

CC(C)=CCN1Cc2c(OCCOCCOCCOCCOCCOCCOCCOCCO)ccc([N+](=O)[O-])c2NC[C@@H]1C
IC50 (MT2): > 100 µM | EC50 [2]: 27 µM

CC(C)=CCN1Cc2c(OCCOCCOCCOCCOCCOCCOCCOCCOC(=O)CCc3cn([C@H]4C=C[C@@H](CO)O4)c(=O)[nH]c3=O)ccc3[nH]c(=S)n(c23)C[C@@H]1C
IC50 (MT2): > 100 µM | EC50 [2]: 120 µM

CC(C)=CCN1Cc2c(OCCOCCOCCOCCOCCOCCn3c(=O)ccn([C@H]4C=C[C@@H](CO)O4)c3=O)ccc3[nH]c(=S)n(c23)C[C@@H]1C
IC50 (MT2): 38 µM | EC50 [2]: 20 µM

Cc1cn([C@H]2C=C[C@@H](CO)O2)c(=O)[nH]c1=O [STAVUDINE]
IC50 (MT2): > 100 µM | EC50 [2]: 2.2 µM

CC(C)=CCN1Cc2c(OCCOCCOCCOCCOCCOCCOC(=O)CCc3cn([C@H]4C=C[C@@H](CO)O4)c(=O)[nH]c3=O)ccc3[nH]c(=S)n(c23)C[C@@H]1C
IC50 (MT2): > 100 µM | EC50 [2]: 100 µM
